Reference: publication PMC6225165, “Design and Synthesis of Novel Dehydroepiandrosterone Analogues as Potent Antiproliferative Agents” (Molecules : A Journal of Synthetic Chemistry and Natural …, 2018)

Tests used:
A549 = test: MTT antiproliferative assay, A549; assay type: cell-based, human; conditions: for inhibition at 100 µM / IC50: Homo sapiens, A549; for inhibition at 100 µM / % Growth Inhibition at 100 μM A549 / IC50: 48 h, MTT; for inhibition at 100 µM: read-out: % Growth Inhibition at 100 μM A549; for Selectivity Index A549: IC50 on normal cells (L02)/IC50 on tumour cells
Procedure: (§1) The antiproliferative activity of the title compounds against the panel of six different human cancer cell lines, viz. lung (A549), cervix (HeLa), liver (HepG-2), liver (BEL7402), colorectal (HCT116), and breast (MCF-7) cell lines, was evaluated using a standard MTT-based colorimetric assay. All cell lines were obtained from the Key Laboratory of Natural Resources and Functional Molecules of the Changbai Mountain (Yanbian University) and maintained in Dulbecco’s modified Eagle’s medium (DMEM) and RPMI Media 1640 (RPMI1640), supplemented with 10% foetal bovine serum (FBS) at 37 °C in a humidified atmosphere containing 5% CO2.
(§2) Cells were plated in 96-well plates at appropriate densities to ensure exponential growth throughout the experimental period (9 × 10^3 cells per well), and then allowed to adhere for 24 h. Cells were then treated for 48 h with each compound. After 48 h of incubation, 10 μL of MTT solution were added to each well to a final concentration of 2 mg·mL^−1. Plates were then incubated for a further 4 h. After incubation, the MTT solution was removed and 150 μL of DMSO were added to each well for coloration. The plates were shaken vigorously for 10 min at room temperature to ensure complete solubilisation. The optometric density (OD) was read on a microplate reader (EL × 800, BioTek, Highland Park, Winooski, VT, USA) at 492 nm, and the data were subsequently analysed. The percentage of cell growth inhibition was calculated from the following equation:Inhibitory rate (%) = [1 − (ODtreated − ODblank)/(ODcontrol − ODblank)] × 100.
(§3) To obtain the antiproliferative activity of compounds 2a–2w, the compounds were selected in the same way with four serial concentrations (1, 10, 50 and 100 μM) of those compounds. The optometric density (OD) reading was then used to calculate the IC50.

Hela = test: MTT antiproliferative assay, Hela; assay type: cell-based, human; conditions: for inhibition at 100 µM / IC50: Homo sapiens; for inhibition at 100 µM / % Growth Inhibition at 100 μM Hela / IC50: 48 h, MTT; for inhibition at 100 µM: read-out: % Growth Inhibition at 100 μM Hela; for IC50: HeLa; for Selectivity Index Hela: IC50 on normal cells (L02)/IC50 on tumour cells
Procedure: as §1, §2, §3

HepG-2 = test: MTT antiproliferative assay, HepG-2; assay type: cell-based, human; conditions: for inhibition at 100 µM / IC50: Homo sapiens, HepG2; for inhibition at 100 µM / % Growth Inhibition at 100 μM HepG-2 / IC50: 48 h, MTT; for inhibition at 100 µM: read-out: % Growth Inhibition at 100 μM HepG-2; for Selectivity Index HepG-2: IC50 on normal cells (L02)/IC50 on tumour cells
Procedure: as §1, §2, §3

BEL7402 = test: MTT antiproliferative assay, BEL7402; assay type: cell-based, human; conditions: for inhibition at 100 µM / IC50: Homo sapiens, Bel-7402; for inhibition at 100 µM / % Growth Inhibition at 100 μM BEL7402 / IC50: 48 h, MTT; for inhibition at 100 µM: read-out: % Growth Inhibition at 100 μM BEL7402; for Selectivity Index BEL7402: IC50 on normal cells (L02)/IC50 on tumour cells
Procedure: as §1, §2, §3

HCT116 = test: MTT antiproliferative assay, HCT116; assay type: cell-based, human; conditions: for inhibition at 100 µM / IC50: Homo sapiens, HCT-116; for inhibition at 100 µM / % Growth Inhibition at 100 μM HCT116 / IC50: 48 h, MTT; for inhibition at 100 µM: read-out: % Growth Inhibition at 100 μM HCT116; for Selectivity Index HCT116: IC50 on normal cells (L02)/IC50 on tumour cells
Procedure: as §1, §2, §3

MCF-7 = test: MTT antiproliferative assay, MCF-7; assay type: cell-based, human; conditions: for inhibition at 100 µM / IC50: Homo sapiens, MCF7; for inhibition at 100 µM / % Growth Inhibition at 100 μM MCF-7 / IC50: 48 h, MTT; for inhibition at 100 µM: read-out: % Growth Inhibition at 100 μM MCF-7
Procedure: as §1, §2, §3

[1] = test system: human normal liver (L02) cells; test: MTT assay on normal cell line L02; assay type: cell-based; conditions: 48 h, MTT; for inhibition at 100 µM / IC50: Homo sapiens, L02; for inhibition at 100 µM / % Growth Inhibition at 100 μM L02: normal cells; for inhibition at 100 µM: read-out: % Growth Inhibition at 100 μM L02; for IC50: normal cell line

SMILES | inhibition at 100 µM (A549) | inhibition at 100 µM (Hela) | inhibition at 100 µM (HepG-2) | inhibition at 100 µM (BEL7402) | inhibition at 100 µM (HCT116) | inhibition at 100 µM (MCF-7) | inhibition at 100 µM [1] | % Growth Inhibition at 100 μM A549 (A549) | % Growth Inhibition at 100 μM Hela (Hela) | % Growth Inhibition at 100 μM HepG-2 (HepG-2) | % Growth Inhibition at 100 μM BEL7402 (BEL7402) | % Growth Inhibition at 100 μM HCT116 (HCT116) | % Growth Inhibition at 100 μM MCF-7 (MCF-7) | % Growth Inhibition at 100 μM L02 [1] | IC50 (A549) | Selectivity Index A549 (A549) | IC50 (Hela) | Selectivity Index Hela (Hela) | IC50 (HepG-2) | Selectivity Index HepG-2 (HepG-2) | other results
CC12CCC3C(CC=C4CC(O)CCC43C)C1C/C(=C\c1cn(-c3ccccc3)nn1)C2=O (stereo not drawn) [Compound 2a, (E)-3-hydroxy-10,13-dimethyl-16-((1-phenyl-1H-1,2,3-triazol-4-yl)methylene)-1,3,4,7,8,9,10,11,12,13,15,16-dodecahydro-2H-cyclopenta[a]phenanthren-17(14H)-one] | 30.3% | < 5% | 10.2% | 12.9% | 11.1% | < 5% | 22.3% | – | – | – | – | – | – | – | – | – | – | – | – | – | –
CC12CCC3C(CC=C4CC(O)CCC43C)C1C/C(=C\c1cn(-c3ccccc3F)nn1)C2=O (stereo not drawn) [Compound 2b, (E)-16-((1-(2-fluorophenyl)-1H-1,2,3-triazol-4-yl)methylene)-3-hydroxy-10,13-dimethyl-1,3,4,7,8,9,10,11,12,13,15,16-dodecahydro-2H-cyclopenta[a]phenan-thren-17(14H)-one] | – | – | – | – | – | – | – | NA (NA: antiproliferative activity <5%) | NA (NA: antiproliferative activity <5%) | NA (NA: antiproliferative activity <5%) | NA (NA: antiproliferative activity <5%) | NA (NA: antiproliferative activity <5%) | NA (NA: antiproliferative activity <5%) | NA (NA: antiproliferative activity <5%) | – | – | – | – | – | – | –
CC12CCC3C(CC=C4CC(O)CCC43C)C1C/C(=C\c1cn(-c3cccc(F)c3)nn1)C2=O (stereo not drawn) [Compound 2c, (E)-16-((1-(3-fluorophenyl)-1H-1,2,3-triazol-4-yl)methylene)-3-hydroxy-10,13-dimethyl-1,3,4,7,8,9,10,11,12,13,15,16-dodecahydro-2H-cyclopenta[a]phenanthren-17(14H)-one] | 60.5% | 55.2% | 78.8% | 66.7% | 78.3% | 31.2% | 79.3% | – | – | – | – | – | – | – | 51.6 µM | 1.61 | 83.5 µM | 0.99 | 11.1 µM | 7.53 | IC50 (BEL7402): 68.9 µM; Selectivity Index BEL7402 (BEL7402): 1.21; IC50 (HCT116): 26.3 µM; Selectivity Index HCT116 (HCT116): 3.17; IC50 (MCF-7): > 100 µM; IC50 [1]: 83.4 µM
CC12CCC3C(CC=C4CC(O)CCC43C)C1C/C(=C\c1cn(-c3ccc(F)cc3)nn1)C2=O (stereo not drawn) [Compound 2d, (E)-16-((1-(4-fluorophenyl)-1H-1,2,3-triazol-4-yl)methylene)-3-hydroxy-10,13-dimethyl-1,3,4,7,8,9,10,11,12,13,15,16-dodecahydro-2H-cyclopenta[a]phenanthren-17(14H)-one] | 68.8% | 78.9% | 65.6% | 60.4% | 84.9% | 83% | 80.3% | – | – | – | – | – | – | – | 15.8 µM | 1.76 | 13.2 µM | 2.10 | 36.2 µM | 0.77 | IC50 (BEL7402): 40.4 µM; Selectivity Index BEL7402 (BEL7402): 0.69; IC50 (HCT116): 33.2 µM; Selectivity Index HCT116 (HCT116): 0.83; IC50 (MCF-7): 17.8 µM; Selectivity Index MCF-7 (MCF-7; IC50 on normal cells (L02)/IC50 on tumour cells): 1.56; IC50 [1]: 27.8 µM
CC12CCC3C(CC=C4CC(O)CCC43C)C1C/C(=C\c1cn(-c3ccccc3Cl)nn1)C2=O (stereo not drawn) [Compound 2e, (E)-16-((1-(2-chlorophenyl)-1H-1,2,3-triazol-4-yl)methylene)-3-hydroxy-10,13-di-methyl-1,3,4,7,8,9,10,11,12,13,15,16-dodecahydro-2H-cyclopenta[a]phenan-thren-17(14H)-one] | – | – | – | – | – | – | – | NA (NA: antiproliferative activity <5%) | 32.8% | NA (NA: antiproliferative activity <5%) | 10.5% | 23.0% | 37.3% | 12.4% | – | – | – | – | – | – | –
